# What was measured:
# Format in all cases: biochemical
# Taq DNA polymerase [1] = molecular target: T1, Taq DNA polymerase (Thermus aquaticus, UniProt P19821); assay: M13 phage DNA primer extension assay (agarose gel read-out); settings: for restoration of Taq DNA polymerase activity at 60° C.: concentration range tested, lowest 10 μmol; for inhibition of Taq DNA polymerase at 40° C. (FIG. 5) / inhibition of Taq DNA polymerase (FIG. 6): 40° C.; for inhibitory effect on Taq DNA polymerase in primer extension assay: 51° C., carbohydrates 1% w/vol, ds Lambda DNA 5 μg/rxn, 10 minutes pre-incubation with Taq
# T1 construct: purchased Eppendorf AG
# From the text: A simple non-radioactive primer extension assay was used to monitor the activity of Taq DNA polymerase for DNA synthesis at various temperatures. The universal −47 M13 24-mer sequencing primer (New England Biolabs, Inc.) was annealed to circular single-stranded virion DNA from E. coli phage M13 (New England Biolabs, Inc.) to form an appropriate template for DNA synthesis by Taq DNA polymerase.
# During the assay reactions, the annealed primer is extended by stepwise addition of complementary nucleotides (dNTP) on the single-stranded template DNA with Taq polymerase. The polymerase mediated primer extension reaction transforms the circular single-stranded (ss) template DNA into a double-stranded (ds) plasmid-like circular DNA molecule, as shown in FIG. 1. A completely ds circular phage DNA molecule is synthesized when the de-novo synthesized complementary strand reaches the 5′ end of the extended primer. This terminates the DNA synthesis process due to the weak strand displacement activity of Taq DNA polymerase. The ss primed template DNA, the full length ds circular DNA synthesis product, and intermediate synthesis products with ds regions of variable length differ from each other by their electrophoretic mobility in 1% agarose gels. The initial DNA template and all reaction products can be separated and monitored by electrophoresis in a 1% […] agarose gel stained with ethidium bromide.
# The electrophoretic mobility of the three species reciprocally correlates with the length of the de-novo synthesized complementary strand. With increasing length of the ds regions, the migration of intermediate primer extension products shifts toward the slow migrating band of ds circular DNA (full-length synthesis product). The amount (band intensity) of the ds full-length synthesis product, as well as the migration shift of intermediate primer extension product, were used as a measure for the activity and extension rate of Taq DNA polymerase under various reaction conditions.
# After the denaturation/annealing reaction the primed ss template DNA was stored frozen at −20° C. until use. 5 μL of this primed ss template DNA mix were added into a 50 μL primer extension assay reaction, or 2 μL into a 20 μL assay, respectively. The primer extension assay reactions were set-up on ice in 0.2 mL PCR tubes adding the reaction components to the following final concentrations:
# The primer extension reactions were incubated for either 20 or 40 minutes on Eppendorf Mastercyclers set to the desired reaction temperature (30° C.-70° C.). At the end of the incubation time the reaction were placed on ice and 1 μL of 100 mM EDTA was added to stop the reaction immediately. 20 μL of each primer extension assay reaction were loaded on the 1% agarose gel for further analysis.
# Soluble carbohydrates 5% w/vol aqueous solutions in molecular biology grade water were prepared. The desired carbohydrates or ds DNA were added to the primer extension reaction described above in Example 2 to final concentrations of 1% w/vol. In modification of the original primer extension assay the reaction mixtures were set-up without the primed template DNA. The primer-template DNA was added to the Taq DNA polymerase/carbohydrate sample after a 10 minutes pre-incubation in order to permit preliminary interaction of the carbohydrate with the Taq DNA polymerase, i.e., pre-incubate the carbohydrate onto the Taq DNA polymerase. The primer extension reactions were incubated for 40 minutes at 51° C. (the critical temperature for specific primer annealing). 20 μl of the reaction mixtures were analyzed on 0.7% agarose gel.
# Primer extension assays were carried out in the presence of various concentration of dextran sulfate Mw 1500 (see FIG. 4), Mw 4000, Mw 5000 and Mw 8000 (see FIGS. 5 and 6). The reaction set-up was modified so that the dextran sulfates were pre-mixed into the Taq polymerase solution (5 U/μl) to provide final concentrations as indicated in the Figures. […]
# Taq DNA polymerase [2] = molecular target: T1, Taq DNA polymerase; assay: 2 kb human β-globin gene fragment PCR, specificity and yield on agarose gel
# Protocol: In order to amplify a predictable sized DNA fragment of the human β-globin gene, a pair of known primers was selected from a region of the human β-globin gene (Collins et al (1984) Prog Nucleic Acid Res Mol Biol 31:315-462 to yield PCR products with length of 2.0 kb: The Taq DNA polymerase 5 U/μl containing 0.2 mM dextran sulfate Mw4000 was used in the PCR mixtures (10 mM Tris-HCl, pH 8.3, 50 mM KCl, 2.5 mM Mg(OAc)2, 200 μM dNTP) in which human genomic DNA (100 ng) was used as template. The PCR was performed as follows: 94° C. for 2 min followed by 35 cycles of 55° C.—20 seconds, 72° C.—2:30 minutes and 94° C. for −15 seconds. The PCR products were subjected to agarose gel electrophoresis. Negative control experiments were carried out under the same PCR conditions except that unmodified Taq DNA Polymerase was used in the reaction. A positive control experiment was carried out in the same PCR conditions except that AmpliTaq Gold DNA Polymerase (Perkin Elmer Biosystems), the market leading product for performing highly specific hot start PCR, with the appropriate reaction buffer were used in the reaction.
# The same basic PCR assay was performed as described in the previous Examples, except that Taq DNA polymerase preparations were mixed with increasing amounts of dextran sulfate Mw4000. […]
# Taq DNA polymerase [3] = molecular target: T1, Taq DNA polymerase; assay: Primer extension assay quantified with picogreen (de-novo synthesized ds DNA); settings: Mw4000, Mw5000, Mw8000 at 175 μmol, 30 μmol and 32 μmol; 5 minutes incubation; FIG. 10
# From the text: FIG. 10 graphically illustrates the temperature dependent inhibition of Taq DNA polymerase by dextran sulfate Mw4000, Mw5000, and Mw8000 which have been quantitatively analyzed. In each reaction the amount of de-novo synthesized double-stranded DNA was quantified with picogreen on a Fluorescence Microplate Reader. The amount of double-stranded DNA in the control reactions with unmodified Taq polymerase at each temperature tested were taken as 100% activity at the corresponding reaction temperature. […] at the corresponding reaction temperature and multiplied by 100 to calculate the percent of residual activity of dextran sulfate inhibited Taq polymerase from the activity of the unmodified enzyme at that temperature (bold line graphs). 100 minus the percent of residual activity of dextran sulfate inhibited Taq polymerase represents the percent of relative activity inhibition of dextran sulfate/Taq polymerase complexes at each temperature shown with dotted line graphs.
# Primer extension was set-up as described in Example 4. The final concentrations of dextran sulfate Mw4000, Mw5000 and Mw8000 were adjusted to 175 μmol, 30 μmol and 32 μmol, respectively. At each tested incubation temperature a control reaction was carried out with unmodified Taq polymerase. After 5 minutes incubation the reactions were stopped as described earlier. 25.2 μl out of 50 μl were used to quantify the yield of de-novo synthesized double-stranded DNA with picogreen. The picogreen stained DNA samples were measured on a Fluorescence Microplate Reader.
# The amount of double-stranded DNA in the control reactions with unmodified Taq polymerase at each temperature tested were taken as 100% activity at the corresponding reaction temperature. […]
# [4] = 20 minutes, first concentration ranges
# [5] = 20 minutes, re-fined concentration ranges
# T1 sequence (P19821 whole entry): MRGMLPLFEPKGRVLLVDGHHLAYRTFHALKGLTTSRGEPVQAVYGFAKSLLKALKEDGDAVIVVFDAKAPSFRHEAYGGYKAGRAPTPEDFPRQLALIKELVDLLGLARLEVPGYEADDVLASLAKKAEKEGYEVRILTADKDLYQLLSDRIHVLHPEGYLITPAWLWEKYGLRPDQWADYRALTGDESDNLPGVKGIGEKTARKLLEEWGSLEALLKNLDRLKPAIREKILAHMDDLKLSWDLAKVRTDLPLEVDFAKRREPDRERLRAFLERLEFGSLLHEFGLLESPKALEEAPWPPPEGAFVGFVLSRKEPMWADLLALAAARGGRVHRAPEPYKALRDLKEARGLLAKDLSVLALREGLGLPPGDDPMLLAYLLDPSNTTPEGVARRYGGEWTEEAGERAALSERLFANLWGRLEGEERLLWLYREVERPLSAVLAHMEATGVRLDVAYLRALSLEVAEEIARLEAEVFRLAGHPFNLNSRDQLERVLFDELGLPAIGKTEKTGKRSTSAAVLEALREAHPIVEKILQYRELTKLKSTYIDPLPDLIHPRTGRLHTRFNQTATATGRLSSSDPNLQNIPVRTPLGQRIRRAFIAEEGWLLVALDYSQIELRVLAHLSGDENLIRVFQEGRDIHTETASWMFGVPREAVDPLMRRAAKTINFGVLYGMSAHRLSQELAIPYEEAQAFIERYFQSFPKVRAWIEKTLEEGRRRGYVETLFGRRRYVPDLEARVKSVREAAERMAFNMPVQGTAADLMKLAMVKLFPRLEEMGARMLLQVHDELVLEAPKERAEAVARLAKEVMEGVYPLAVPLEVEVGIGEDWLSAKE
substance,measurement,setting,value
dextran sulfate [dextran sulfate Mw 1500],concentration at which partial release of inhibition was detected,"Taq DNA polymerase [1]; 50° C. and 60° C., FIG. 4",< 50 µmol
same,restoration of Taq DNA polymerase activity at 60° C.,Taq DNA polymerase [1]; 20 minutes,only be partially restored
same,restoration of Taq DNA polymerase activity at 60° C.,"Taq DNA polymerase [1]; 20 minutes, listed as dextran sulfate Mw 1,500",full synthesis activity could not be regained
dextran sulfate [dextran sulfate Mw 4000],inhibition of Taq DNA polymerase at 40° C. (FIG. 5),Taq DNA polymerase [1]; [4],strong inhibition
same,inhibition of Taq DNA polymerase (FIG. 6),Taq DNA polymerase [1]; [5],strong inhibition
same,effect on specificity of the PCR reaction,"Taq DNA polymerase [2]; 100 ng human genomic DNA, Taq 5 U/μl containing 0.2 mM dextran sulfate, 35 cycles, FIG. 7",significantly enhanced the specificity
same,yield and specificity of the 2 kb PCR fragment versus concentration,"Taq DNA polymerase [2]; increasing amounts of dextran sulfate, FIG. 8",clear correlation
same,temperature dependence of Taq DNA polymerase inhibition (relative to unmodified Taq),Taq DNA polymerase [3],inhibit Taq DNA polymerase in a temperature dependent manner
dextran sulfate [dextran sulfate Mw 5000],inhibition of Taq DNA polymerase at 40° C. (FIG. 5),Taq DNA polymerase [1]; [4],strong inhibition
same,inhibition of Taq DNA polymerase (FIG. 6),Taq DNA polymerase [1]; [5],strongest inhibition of all dextran sulfate derivatives tested
same,inhibitory effect on Taq DNA polymerase in primer extension assay,Taq DNA polymerase [1]; MW 5000,strong inhibition
same,inhibitory effect on Taq DNA polymerase in primer extension assay,Taq DNA polymerase [1]; listed as dextran sulfate having a molecular weight of 5000,strong inhibitor
same,concentration at which almost full Taq polymerase activity could be restored between 60-70° C.,"Taq DNA polymerase [1]; 20 minutes, dextran sulfate pre-mixed into Taq polymerase solution",1.25 µM
same,concentration range with strong inhibition at 40° C. and release of almost full activity at 70° C. (FIG. 5),"Taq DNA polymerase [1]; first concentration ranges, 40° C.-70° C., 20 minutes",1.25 µmol
same,concentration range with strong inhibition at 40° C. and release of almost full activity at 70° C. (FIG. 6),"Taq DNA polymerase [1]; re-fined concentration ranges, 40° C.-70° C., 20 minutes",1.25 µmol
same,temperature dependence of Taq DNA polymerase inhibition (relative to unmodified Taq),Taq DNA polymerase [3],inhibit Taq DNA polymerase in a temperature dependent manner
dextran sulfate [dextran sulfate Mw 8000],inhibition of Taq DNA polymerase at 40° C. (FIG. 5),Taq DNA polymerase [1]; [4],strong inhibition
same,inhibition of Taq DNA polymerase (FIG. 6),Taq DNA polymerase [1]; [5],strong inhibition
same,temperature dependence of Taq DNA polymerase inhibition (relative to unmodified Taq),Taq DNA polymerase [3],inhibit Taq DNA polymerase in a temperature dependent manner
methylcellulose [reference compound],inhibitory effect on Taq DNA polymerase in primer extension assay,Taq DNA polymerase [1],weak inhibitory effect

# From patent publication US6667165B2, “Method and compositions for reversible inhibition of thermostable polymerases” (Eppendorf AG, priority 2001, dated 2003)
